Results taken from patent US6660762B2, “Methods and compositions to treat lung diseases” (priority 2001, dated 2003).
Entries after “also recorded” stand apart in the source; their conditions may differ. Read-outs that look alike come from different tables or passages of the source. Marks after values point to notes of the source that are not given here.

Columns and labels:
Human hemoglobin = biological target: T1, Human hemoglobin (Homo sapiens, UniProt P68871+P69905); assay: Binding of beryllium to various hemoglobins (Sephadex G-25 separation, ICP-AAS); conditions: incubation at 37° C. for 30 minutes; Be:Hb 2.5:1
T1 construct: purchased Sigma H7379
Protocol: These experiments used beryllium nitrate (Aldrich 46,503-8) as a soluble form of beryllium. […] This precipitate was probably an insoluble beryllium phosphate complex. Due to the insolubility of beryllium in PBS at necessary concentrations, experiments were carried out in N-2hydroxyethylpiperazine-N′-2-ethane-sulfonic acid (HEPES)-buffered saline (HBS). HEPES is commonly used as a buffer for biochemical experiments in the physiological pH range. HBS contained 10 mM HEPES, sodium chloride, and potassium chloride, pH 7.4.
Human hemoglobin (Sigma H7379) was dissolved in HBS at a concentration of 40 mg/ml. This hemoglobin was >95% methemoglobin. To reduce the iron and form oxyhemoglobin, 5 mM sodium hydrosulfite was added to the hemoglobin solution. This solution was then dialyzed overnight at 4° C. against HBS to remove residual sodium hydrosulfite. To form carboxyhemoglobin, oxyhemoglobin was gently bubbled with carbon monoxide for 5 minutes. Identity of hemoglobins was confirmed by spectrophotometry prior to experimentation.
Beryllium nitrate was added to a solution of hemoglobin at a molar ratio of 2.5:1 (B e: Hb). This mixture was incubated at 37° C. for 30 minutes. During incubation with beryllium some precipitation of hemoglobin occurred. Precipitate was removed from the samples by centrifugation. Samples of hemoglobin with no beryllium were used as negative controls. Experiments were performed on oxy-, met-, and carboxyhemoglobin.
To isolate beryllium bound to hemoglobin (Be—Hb) from free beryllium, samples were passed through a 1 cm×25 cm Sephadex G-25 column equilibrated in HBS. One milliliter fractions of column eluate were collected. These fractions were diluted to 5 ml with distilled water. The hemoglobin content of each fraction was determined by use of Drabkin's reagent. Beryllium content of each fraction was determined by inductively coupled plasma atomic absorption spectrophotometry (ICP-AAS). A flow chart of this procedure is presented as FIG. 1.

C3H/HEJ mice = assay: Toxicity of aerosolized porphyrins in mice (group bodyweight); assay type: in vivo
From the text: Toxicity of the three porphyrins were studied. Porphyrins were delivered via aerosols into mice. It is considered that beryllium-lung burdened mice will provide in vivo data for the removal of beryllium via urinary secretion tests.
Aqueous solutions of the three porphyrins were aerosolized using a constant-flow Pulmo-Mist pump and nebulizer syste and delivered into cages each housing five female 20+ week old C3H/HEJ mice over a period of twenty days. The group bodyweights of these mice were measured each morning prior to aerosol treatment. Regimens included multiple, constant dosing and dose escalation. Mice in cages receiving multiple doses of 9 mg of one of the select porphyrins began to lose weight (up to 14%) by the third day of treatment. […] Treatments with two porphyrins generally reflected lower and delayed evidence of toxicity compared to that observed with one of the select porphyrins (phthalocyanine tetrasulfonate porphyrin, meso-tetra (4-carboxyphenyl) porphyrin, meso-tetra (4-sulfonatophenyl) porphyrin). Younger mice (about 6 weeks old) were generally more tolerant than older mice, but the rank order of porphyrin toxicity was the same.

[1] = biological target: T2, Beryllium bound to oxyhemoglobin (Be—Hb) (Homo sapiens, UniProt P68871+P69905); assay: Chelation of hemoglobin bound beryllium by porphyrins (removal of beryllium from Be-Hb); assay type: binding; conditions: for effect on amount of beryllium associated with hemoglobin (in words): incubation of Be-Hb with porphyrin
T2 construct: purchased Sigma H7379
Protocol: Beryllium bound to oxyhemoglobin (Be—Hb) was prepared as described in Section 2.1 (above). To determine if the test porphyrins were able to remove beryllium from hemoglobin, porphyrins were added to the hemoglobin solution at 2.5 times the Be concentration of the solution. One hundred μl of 7.1 mM porphyrin solution (or 100 μl of HBS for controls) was added to 1 ml of […]. This mixture was incubated at 37° C. for 30 minutes. Following incubation, the entire mixture was loaded into a Centricon YM-30 molecular weight cutoff filter. This filter retains molecules with a molecular weight >30,000 (i.e., hemoglobin) and allows smaller molecules (i.e. porphyrin, free beryllium) to pass through. The samples were centrifuged to concentrate hemoglobin on the filter and then washed with 500 μl of HBS to remove any porphyrin or beryllium trapped in the hemoglobin concentrate. Hemoglobin concentrates were collected in 100 μl of HBS according to the manufacturer's instructions. The concentrates were then diluted to 3 mls with HBS. Hemoglobin concentration of each sample was determined spectrophotometrically with Drabkin's reagent. Beryllium content of each sample was determined by ICP-AAS.

[2] = Binding of beryllium to porphyrins by proton NMR in deuterium oxide; conditions: no buffer
Protocol: Initial experiments utilized HBS prepared in deuterium oxide (deuterated water, D2O) to eliminate the protons of water. This was not successful as the HEPES in the buffer also contains protons that interfered with the analysis. Therefore, experiments were conducted with porphyrins 1-5 dissolved in deuterium oxide. Porphyrins were analyzed in the presence and absence of beryllium-Spectra were collected on a 500 MHz JEOL.

T1 sequence (P69905 2-142 limits assumed): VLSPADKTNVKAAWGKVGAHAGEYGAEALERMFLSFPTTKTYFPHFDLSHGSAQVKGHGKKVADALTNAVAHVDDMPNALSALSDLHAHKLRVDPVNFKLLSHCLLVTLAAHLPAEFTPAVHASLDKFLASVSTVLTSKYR
T1 sequence (P68871 2-147 limits assumed): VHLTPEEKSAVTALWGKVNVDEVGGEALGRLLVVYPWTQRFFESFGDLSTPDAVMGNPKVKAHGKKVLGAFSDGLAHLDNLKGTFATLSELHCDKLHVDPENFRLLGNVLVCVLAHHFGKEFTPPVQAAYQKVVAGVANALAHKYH
T2 sequence (P69905 2-142 limits assumed): as the sequence (P69905 2-142 limits assumed) above
T2 sequence (P68871 2-147 limits assumed): as the sequence (P68871 2-147 limits assumed) above

Molecule | Molar ratio (moles Be:moles Hb) Mean (Human hemoglobin) | μg beryllium/mg hemoglobin Mean (Human hemoglobin) | toxicity / safety of aerosol delivery to lungs (in words) (C3H/HEJ mice) | effect on amount of beryllium associated with hemoglobin (in words) [1] | also measured
Methemoglobin: Human hemoglobin (Sigma H7379), >95% methemoglobin, iron in the +III oxidation state | 0.13a moles Be:moles Hb | 0.016^a μg beryllium/mg hemoglobin |  |  | 
Carboxyhemoglobin: oxyhemoglobin gently bubbled with carbon monoxide for 5 minutes | 1.88 moles Be:moles Hb | 0.351 μg beryllium/mg hemoglobin |  |  | 
O=C(O)c1ccc(-c2c3nc(c(-c4ccc(C(=O)O)cc4)c4ccc([nH]4)c(-c4ccc(C(=O)O)cc4)c4nc(c(-c5ccc(C(=O)O)cc5)c5ccc2[nH]5)C=C4)C=C3)cc1 [porphyrin 2, meso-tetra (4-carboxyphenyl) porphyrin] |  |  | maybe safely delivered as aerosols; also recorded: non-toxic | reduced the amount of beryllium associated with hemoglobin | 
Oxyhemoglobin: Human hemoglobin reduced with sodium hydrosulfite, iron in the +II oxidation state | 2.25 moles Be:moles Hb | 0.438 μg beryllium/mg hemoglobin |  |  | 
phthalocyanine tetrasulfonate [porphyrin 3] |  |  | maybe safely delivered as aerosols | reduced the amount of beryllium associated with hemoglobin | change in proton NMR spectra on addition of beryllium [2]: suggest a reaction of beryllium with the porphyrin; reduction of the amount of beryllium associated with hemoglobin ([1]; molar excess of porphyrin, 30 minutes at 37° C.): 59%
hemin [porphyrin 1] |  |  |  | reduced the amount of beryllium associated with hemoglobin | 
magnesium phthalocyanine tetrasulfonate tetra sodium salt porphyrin [porphyrin 5] |  |  |  | reduced the amount of beryllium associated with hemoglobin | change in proton NMR spectra on addition of beryllium [2]: suggest a reaction of beryllium with the porphyrin
O=S(=O)(O)c1ccc(-c2c3nc(c(-c4ccc(S(=O)(=O)O)cc4)c4ccc([nH]4)c(-c4ccc(S(=O)(=O)O)cc4)c4nc(c(-c5ccc(S(=O)(=O)O)cc5)c5ccc2[nH]5)C=C4)C=C3)cc1 [porphyrin 4, meso-tetra (4-sulfonatophenyl) porphyrin] |  |  | maybe safely delivered as aerosols | reduced the amount of beryllium associated with hemoglobin | toxicity / safety of aerosol delivery to lungs (in words) (C3H/HEJ mice; listed as meso-tetra-(4-sulfonate phenyl)): non-toxic
